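Five concentrations, 48 hours, 96-well plates. Here, GI50 denotes the concentration required for 50% inhibition of growth.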 Active and inactive are the calls of the source. No stated cut-off is given here; in the data, active = GI50 up to about 1.1 µM and inactive = higher.
Experiments:
Test in all cases: NCI tumour cell line growth inhibition, 48 h
K562 = test system: K562
MDA-MB-435 = test system: MDA-MB-435
RXF 393 = test system: RXF 393
SW-620 = test system: SW-620
SNB-19 = test system: SNB-19
OVCAR-3 = test system: OVCAR-3
DU-145 = test system: DU-145
786-0 = test system: 786-0
HOP-62 = test system: HOP-62
PC-3 = test system: PC-3
HOP-92 = test system: HOP-92
NCI-H460 = test system: NCI-H460
IGROV-1 = test system: IGROV-1
EKVX = test system: EKVX
NCI-H522 = test system: NCI-H522
NCI-H23 = test system: NCI-H23
MCF7 = test system: MCF7
HCC 2998 = test system: HCC 2998
BT-549 = test system: BT-549
KM12 = test system: KM12
UACC-257 = test system: UACC-257
A498 = test system: A498
OVCAR-8 = test system: OVCAR-8
SK-MEL-5 = test system: SK-MEL-5
M14 = test system: M14
TK-10 = test system: TK-10
MOLT-4 = test system: MOLT-4
COLO 205 = test system: COLO 205
HCT-15 = test system: HCT-15
SNB-75 = test system: SNB-75
MDA-MB-231 = test system: MDA-MB-231
A549 = test system: A549
NCI/ADR-RES = test system: NCI/ADR-RES
OVCAR-5 = test system: OVCAR-5
CCRF-CEM = test system: CCRF-CEM
UACC-62 = test system: UACC-62
SK-OV-3 = test system: SK-OV-3
SN12C = test system: SN12C
UO-31 = test system: UO-31
OVCAR-4 = test system: OVCAR-4
HCT-116 = test system: HCT-116
LOX IMVI = test system: LOX IMVI
CAKI-1 = test system: CAKI-1
MDA-N = test system: MDA-N
SF-268 = test system: SF-268
SR = test system: SR
HT-29 = test system: HT-29
SF-539 = test system: SF-539
NCI-H226 = test system: NCI-H226
SF-295 = test system: SF-295
HL-60 = test system: HL-60
ACHN = test system: ACHN
U-251 = test system: U-251
SK-MEL-28 = test system: SK-MEL-28
SK-MEL-2 = test system: SK-MEL-2
Malme-3M = test system: Malme-3M
Hs-578T = test system: Hs-578T

## CNC1(c2cc3ccccc3s2)CCCCC1
K562
  GI50: 31.8 µM (inactive)
MDA-MB-435
  GI50: 16.8 µM (inactive)
RXF 393
  GI50: 23.4 µM (inactive)
SW-620
  GI50: < 0.01 µM (active)
SNB-19
  GI50: 41.8 µM (inactive)
OVCAR-3
  GI50: 28.2 µM (inactive)
DU-145
  GI50: 40.1 µM (inactive)
786-0
  GI50: 19.2 µM (inactive)
HOP-62
  GI50: 33.9 µM (inactive)
PC-3
  GI50: 18.1 µM (inactive)
HOP-92
  GI50: 14.3 µM (inactive)
NCI-H460
  GI50: 17.7 µM (inactive)
IGROV-1
  GI50: 19.1 µM (inactive)
EKVX
  GI50: 0.433 µM (active)
NCI-H522
  GI50: 12.7 µM (inactive)
NCI-H23
  GI50: 57.4 µM (inactive)
MCF7
  GI50: 29.5 µM (inactive)
HCC 2998
  GI50: 14.9 µM (inactive)
BT-549
  GI50: 67 µM (inactive)
KM12
  GI50: 17.9 µM (inactive)
UACC-257
  GI50: 18.2 µM (inactive)
A498
  GI50: 33.3 µM (inactive)
OVCAR-8
  GI50: 37.2 µM (inactive)
SK-MEL-5
  GI50: 16.3 µM (inactive)
M14
  GI50: 18 µM (inactive)
TK-10
  GI50: 44.2 µM (inactive)
MOLT-4
  GI50: 42.2 µM (inactive)
COLO 205
  GI50: 18.9 µM (inactive)
HCT-15
  GI50: 31.8 µM
SNB-75
  GI50: 21.5 µM (inactive)
MDA-MB-231
  GI50: 23.2 µM (inactive)
A549
  GI50: 48.1 µM (inactive)
NCI/ADR-RES
  GI50: 33.3 µM (inactive)
OVCAR-5
  GI50: 20.5 µM (inactive)
CCRF-CEM
  GI50: < 0.01 µM (active)
UACC-62
  GI50: 20.6 µM (inactive)
SK-OV-3
  GI50: 39 µM (inactive)
SN12C
  GI50: 38.1 µM (inactive)
UO-31
  GI50: 46.9 µM (inactive)
OVCAR-4
  GI50: 27.7 µM (inactive)
HCT-116
  GI50: 41.5 µM (inactive)
LOX IMVI
  GI50: 19.9 µM (inactive)
CAKI-1
  GI50: 42.1 µM (inactive)
MDA-N
  GI50: 19.9 µM (inactive)
SF-268
  GI50: 14.2 µM (inactive)
SR
  GI50: 25 µM (inactive)
HT-29
  GI50: 14.8 µM (inactive)
SF-539
  GI50: 20.4 µM (inactive)
NCI-H226
  GI50: 32.7 µM (inactive)
SF-295
  GI50: 25 µM (inactive)
HL-60
  GI50: < 0.01 µM (active)
ACHN
  GI50: 42.6 µM (inactive)
U-251
  GI50: 17.8 µM (inactive)

## COC(=O)[C@@H]1[C@H](O)CCC2=C(CC(=O)c3ccoc3)[C@H](C)CC[C@]21C
K562
  GI50: 16.8 µM (inactive)
RXF 393
  GI50: 41.7 µM (inactive)
SW-620
  GI50: 36.9 µM (inactive)
SNB-19
  GI50: > 50 µM (inactive)
OVCAR-3
  GI50: 26.2 µM (inactive)
786-0
  GI50: > 50 µM (inactive)
HOP-62
  GI50: > 50 µM (inactive)
PC-3
  GI50: 23.4 µM (inactive)
HOP-92
  GI50: > 50 µM (inactive)
NCI-H460
  GI50: 23.9 µM (inactive)
IGROV-1
  GI50: > 50 µM (inactive)
EKVX
  GI50: > 50 µM (inactive)
NCI-H23
  GI50: 30.3 µM (inactive)
SK-MEL-28
  GI50: > 50 µM (inactive)
MCF7
  GI50: 26.4 µM (inactive)
HCC 2998
  GI50: > 50 µM (inactive)
BT-549
  GI50: 18.8 µM (inactive)
KM12
  GI50: 36.1 µM (inactive)
UACC-257
  GI50: 22.9 µM (inactive)
SK-MEL-2
  GI50: > 50 µM (inactive)
A498
  GI50: > 50 µM (inactive)
OVCAR-8
  GI50: 35.8 µM (inactive)
SK-MEL-5
  GI50: 18.1 µM (inactive)
M14
  GI50: 41.2 µM (inactive)
TK-10
  GI50: > 50 µM (inactive)
Malme-3M
  GI50: > 50 µM (inactive)
COLO 205
  GI50: > 50 µM (inactive)
HCT-15
  GI50: 46.1 µM
SNB-75
  GI50: 16.7 µM (inactive)
MDA-MB-231
  GI50: > 50 µM (inactive)
A549
  GI50: > 50 µM (inactive)
NCI/ADR-RES
  GI50: 22.2 µM (inactive)
OVCAR-5
  GI50: > 50 µM (inactive)
UACC-62
  GI50: 25.4 µM (inactive)
SK-OV-3
  GI50: > 50 µM (inactive)
SN12C
  GI50: > 50 µM (inactive)
UO-31
  GI50: 19.5 µM (inactive)
OVCAR-4
  GI50: 45 µM (inactive)
HCT-116
  GI50: 22.6 µM (inactive)
LOX IMVI
  GI50: 27.5 µM (inactive)
CAKI-1
  GI50: > 50 µM (inactive)
MDA-N
  GI50: 24.5 µM (inactive)
HT-29
  GI50: 44.3 µM (inactive)
Hs-578T
  GI50: > 50 µM (inactive)
SF-539
  GI50: > 50 µM (inactive)
NCI-H226
  GI50: 46.2 µM (inactive)
SF-295
  GI50: 31.4 µM (inactive)
ACHN
  GI50: > 50 µM (inactive)
U-251
  GI50: 41.2 µM (inactive)
